Assays:
[1] = molecular target: T1, proton pump (H+/K+-ATPase), porcine gastric vesicles (Sus scrofa, UniProt P19156); assay: Inhibitory effects against proton pump (H+/K+-ATPase) activity, malachite green phosphate assay; type: biochemical; conditions: pH 6.4, 37° C., K+-dependent activity
T1 construct: reaction buffer (50 mmol/L Tris-Hepes buffer, pH 6.4) containing porcine gastric vesicles; from tissue; host or cells: porcine gastric mucosa (gastric vesicles prepared by centrifugation)
Method: Test Example 1: Preparation of Gastric Vesicles
Gastric vesicles used in the experiment were prepared by separation from porcine gastric mucosa according to a centrifugation method [Saccomani G, et al., A Nonelectrogenic H^+ Pump in Plasma Membranes of Hog Stomach, J Biol Chem., 1976, 251 (23), 7690-8]. Next, the protein content of the gastric vesicles was quantified using a bicinchoninic acid kit [Smith P K, et al., Measurement of protein using bicinchoninic acid, Anal Biochem., 1985, 150 (1), 76-85)].
Test Example 2: Measurement of Inhibitory Effects Against Proton Pump (H^+/K^+-ATPase) Activity
The inhibitory effects of the compounds against proton pump activity were calculated based on the pump activity determined in the presence of K^+ ions excluding the pump activity determined in the absence of K^+ ions. The inhibitory effects against proton pump activity were measured in 96-well plates, and all reactions were performed with a reaction volume of […] at 37° C. Specifically, 10 μm of valinomycin and each concentration of each compound were pre-incubated in a reaction buffer (50 mmol/L Tris-Hepes buffer, pH 6.4) containing porcine gastric vesicles for 15 minutes. For negative and positive control groups, 1% DMSO was added to buffer, and for test groups, 1% DMSO and a dilution of each concentration of each compound were added. Next, 0.2 mmol/L of adenosine triphosphate (ATP) was added to the reaction buffer and incubated at 37° C. for 40 minutes. After completion of the incubation, a malachite green solution was added to the reaction buffer and incubated for 30 minutes, and the amount of inorganic phosphate in the reaction buffer was measured by colorimetry using a malachite green phosphate assay Kit (Bioassay Systems). For colorimetry, the OD (optical density) at 620 nm was measured using a microplate reader [Synergy H4, hybrid multimode microplate reader, BioTek]. The percent inhibition of proton pump (H^+/K^+-ATPase) was determined based on the OD value of the control group and the OD values of various concentrations of the test compounds, and the IC50 of each test compound was calculated using the Logistic 4-parameter function of Sigmaplot 8.0 program.

[2] = test system: esophageal injury in reflux esophagitis models; assay: Inhibitory effects against esophageal injury in reflux esophagitis models; type: in vivo, Sprague Dawley (SD) rats; conditions: Rattus norvegicus; percent inhibition of esophageal injury area vs control; rats, 2 mg/kg oral 1 hour before ligation, measured 6 hours after ligation; read-out: GERD (rat/mpk)
Method: Test Example 3: Inhibitory Effects against Esophageal Injury in Reflux Esophagitis Models The inhibitory effects of the compounds of the present disclosure against esophageal injury in reflux esophagitis models were evaluated according to the method of Nakamura [Nakamura K, et al., Effects of sodium polyacrylate (PANa) on acute esophagitis by gastric juice in rats, Jpn J Pharmacology, 1982, 32, 445-56]. Male Sprague Dawley (SD) rats (weighing 180-210 g) were divided into X groups (n=6) and fasted without water for 24 hours. Then, the control group was administered orally with only 10% DMSO, 10% Cremophor EL and 80% water, and the other groups were administered orally with 2 mg/kg/2 ml of each test compound together with 10% DMSO, 10% Cremophor EL and 80% water. At 1 hour after administration of the excipients and each compound, the abdominal cavity of each rate was incised under isoflurane anesthesia, and the pylorus was ligated, and the boundary between the anterior portion and the body was also ligated. At 6 hours after ligation, the test animals were euthanized, and the esophagus ranging from the thyroid to the cardiac portion was carefully extracted. The extracted esophagus was incised in a longitudinal direction and spread so as to expose the mucosa and was then fixed, after which the area of esophageal injury was measured. Percent (%) inhibitory activity of test compounds={(total esophageal injury area of control group−esophageal injury area of group treated with test compound)/total esophageal injury area of control group}×100.

[3] = test system: histamine-stimulated gastric acid secretion; assay: Inhibitory effects against histamine-stimulated gastric acid secretion in pylorus-ligated rats (Shay's rat models); type: in vivo, Sprague-Dawley (SD) rats; conditions: percent inhibition of total acid output vs control, 2 mg/kg oral 1 hour before pylorus ligation, histamine 30 mg/kg s.c., 3 hours after ligation
Method: Test Example 4: Inhibitory Effects against Histamine-Stimulated Gastric Acid Secretion in Pylorus-Ligated Rats The inhibitory effects of the compounds of the present disclosure against histamine-stimulated gastric acid secretion were evaluated using Shay's rat models [Shay H, et al. A simple method for the uniform production of gastric ulceration in the rat, Gastroenterology, 1945, 5, 43-61]. Male Sprague-Dawley (SD) rats (weighing 180-210 g) were divided into X groups (n=7) and fasted with only water access for 24 hours. At 1 hour before pylorus ligation, the control group was administered orally with only 10% DMSO, 10% Cremophor EL and 80% water, and the other groups were administered orally with 2 mg/kg/2 ml of each compound together with 10% DMSO, 10% Cremophor EL and 80% water. The abdominal cavity of each rate was incised under isoflurane anesthesia, and the pylorus was ligated. Immediately after ligation, histamine 2HCl was administered subcutaneously to each rat at a dose of 30 mg/kg/10 ml. At 3 hours after ligation, the test animals were euthanized, and the gastric content was extracted. The extracted gastric content was centrifuged at 3,000×g for 10 minutes, and the supernatant was collected to obtain gastric juice. Next, the acidity of the gastric juice was determined based on the volume of (ueq/ml) of 0.1 N—NaOH required for automatic titration of the gastric juice to pH 7.0, and the acidity of the gastric juice was multiplied by the amount of the gastric juice to determine total acid output. Percent (%) inhibitory activity of test compounds={(total acid output in control group−total acid output in group treated with test compound)/total acid output in control group}×100.

T1 sequence (P19156 2-1034 limits assumed): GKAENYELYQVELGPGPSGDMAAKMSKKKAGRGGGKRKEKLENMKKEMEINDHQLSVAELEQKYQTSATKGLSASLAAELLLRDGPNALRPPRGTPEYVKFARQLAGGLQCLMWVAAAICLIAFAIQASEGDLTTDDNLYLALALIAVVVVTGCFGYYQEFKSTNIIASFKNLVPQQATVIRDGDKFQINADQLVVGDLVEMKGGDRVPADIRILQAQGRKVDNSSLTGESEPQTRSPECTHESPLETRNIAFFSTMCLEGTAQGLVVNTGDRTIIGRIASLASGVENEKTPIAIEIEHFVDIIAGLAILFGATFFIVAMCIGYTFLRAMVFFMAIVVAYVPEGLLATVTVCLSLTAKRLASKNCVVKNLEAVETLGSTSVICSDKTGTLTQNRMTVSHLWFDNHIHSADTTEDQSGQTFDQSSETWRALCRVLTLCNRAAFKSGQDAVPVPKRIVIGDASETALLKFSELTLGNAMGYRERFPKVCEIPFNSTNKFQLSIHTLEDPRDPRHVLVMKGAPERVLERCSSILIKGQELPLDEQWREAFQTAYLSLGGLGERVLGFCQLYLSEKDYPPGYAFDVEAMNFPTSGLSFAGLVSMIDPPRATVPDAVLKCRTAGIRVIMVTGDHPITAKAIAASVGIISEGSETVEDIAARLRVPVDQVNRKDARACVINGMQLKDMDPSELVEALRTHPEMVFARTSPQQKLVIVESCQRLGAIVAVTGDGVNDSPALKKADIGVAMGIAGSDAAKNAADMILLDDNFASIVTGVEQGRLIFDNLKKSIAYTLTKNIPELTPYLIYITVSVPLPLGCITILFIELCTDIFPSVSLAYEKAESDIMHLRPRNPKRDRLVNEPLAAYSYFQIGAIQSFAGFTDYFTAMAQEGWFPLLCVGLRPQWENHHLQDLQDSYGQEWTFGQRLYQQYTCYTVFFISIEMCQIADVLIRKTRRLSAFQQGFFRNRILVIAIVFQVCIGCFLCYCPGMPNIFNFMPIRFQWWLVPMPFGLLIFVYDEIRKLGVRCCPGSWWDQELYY
T1 sequence (P18434 whole entry partner): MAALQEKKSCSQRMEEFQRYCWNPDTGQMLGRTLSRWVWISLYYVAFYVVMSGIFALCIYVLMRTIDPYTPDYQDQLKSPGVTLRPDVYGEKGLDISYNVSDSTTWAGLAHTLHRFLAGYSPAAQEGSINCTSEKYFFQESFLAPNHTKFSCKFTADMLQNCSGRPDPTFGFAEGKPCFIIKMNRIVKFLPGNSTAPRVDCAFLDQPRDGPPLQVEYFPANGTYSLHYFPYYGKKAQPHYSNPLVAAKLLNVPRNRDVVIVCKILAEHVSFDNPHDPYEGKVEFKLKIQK

SMILES	IC50 [1] [nM]	inhibition in vivo at 2 mg/kg [2] [%]	acid output (rat/2 mpk) [3] [%]
Cc1cccc(C)c1CNc1cc(C(=O)N2CC(C)C2)cn2c(C)c(C)nc12 [Example 8, {8-[(2,6-dimethylbenzyl)amino]-2,3-dimethylimidazo[1,2-α]pyridin-6-yl}(3-methylazetidin-1-yl)methanone]	96	95.4	
Cc1cc(F)ccc1CNc1cc(C(=O)N2CC(CO)C2)cn2c(C)c(C)nc12 [Example 33, {8-[(4-fluoro-2-methylbenzyl)amino]-2,3-dimethylimidazo[1,2-α]pyridin-6-yl}(3-(hydroxymethyl)azetidin-1-yl)methanone]	143	92.7	
COCC1CN(C(=O)c2cc(NCc3c(C)cc(F)cc3C)c3nc(C)c(C)n3c2)C1 [Example 40, {8-[(4-fluoro-2,6-dimethylbenzyl)amino]-2,3-dimethylimidazo[1,2-α]pyridin-6-yl}[3-(methoxymethyl)azetidin-1-yl]methanone]	134		
Cc1ccc(F)c(C)c1CNc1cc(C(=O)N2CC(O)C2)cn2c(C)c(C)nc12 [Example 41, {8-[(3-fluoro-2,6-dimethylbenzyl)amino]-2,3-dimethylimidazo[1,2-α]pyridin-6-yl}(3-hydroxyazetidin-1-yl)methanone]	149		
Cc1ccc(F)c(C)c1CNc1cc(C(=O)N2CCC2)cn2c(C)c(C)nc12 [Example 42, azetidin-1-yl{8-[(3-fluoro-2,6-dimethylbenzyl)amino]-2,3-dimethylimidazo[1,2-α]pyridin-6-yl}methanone]	85		
Cc1ccc(F)c(C)c1CNc1cc(C(=O)N2CC(F)C2)cn2c(C)c(C)nc12 [Example 43, {8-[(3-fluoro-2,6-dimethylbenzyl)amino]-2,3-dimethylimidazo[1,2-α]pyridin-6-yl}(3-fluoroazetidin-1-yl)methanone]	174		
Cc1ccc(Cl)c(C)c1CNc1cc(C(=O)N2CCC2)cn2c(C)c(C)nc12 [Example 45, azetidin-1-yl{8-[(3-chloro-2,6-dimethylbenzyl)amino]-2,3-dimethylimidazo[1,2-α]pyridin-6-yl}methanone]	81		
Cc1ccc(Cl)c(C)c1CNc1cc(C(=O)N2CC(O)C2)cn2c(C)c(C)nc12 [Example 46]	163		
Cc1ccc(Cl)c(C)c1CNc1cc(C(=O)N2CC(F)C2)cn2c(C)c(C)nc12 [Example 47, {8-[(3-chloro-2,6-dimethylbenzyl)amino]-2,3-dimethylimidazo[1,2-α]pyridin-6-yl}(3-fluoroazetidin-1-yl)methanone]	624		
Cc1ccc(Cl)c(C)c1CNc1cc(C(=O)N2CC(CO)C2)cn2c(C)c(C)nc12 [Example 48, {8-[(3-chloro-2,6-dimethylbenzyl)amino]-2,3-dimethylimidazo[1,2-α]pyridin-6-yl}[3-(hydroxymethyl)azetidin-1-yl]methanone]	102		

Molecules with a lower IC50 [1], results first:

IC50 [1] [nM]	SMILES	inhibition in vivo at 2 mg/kg [2] [%]	acid output (rat/2 mpk) [3] [%]
20	Cc1cccc(C)c1CNc1cc(C(=O)N2CC(O)C2)cn2c(C)c(C)nc12 [Example 1, {8-[(2,6-Dimethylbenzyl)amino]-2,3-dimethylimidazo[1,2-α]pyridin-6-yl}(3-hydroxyazetidin-1-yl)methanone]	84	71
17	Cc1cccc(C)c1CNc1cc(C(=O)N2CCC2)cn2c(C)c(C)nc12 [Example 6, azetidin-1-yl{8-[(2,6-dimethylbenzyl)amino]-2,3-dimethylimidazo[1,2-α]pyridin-6-yl}methanone]	100	94
55	Cc1cccc(C)c1CNc1cc(C(=O)N2CC(F)C2)cn2c(C)c(C)nc12 [Example 7, {8-[(2,6-dimethylbenzyl)amino]-2,3-dimethylimidazo[1,2-a]pyridin-6-yl}(3-fluoroazetidin-1-yl)methanone]	100	91
69	Cc1cccc(C)c1CNc1cc(C(=O)N2CC(C)(O)C2)cn2c(C)c(C)nc12 [Example 9, {8-[(2,6-dimethylbenzyl)amino]-2,3-dimethylimidazo[1,2-α]pyridin-6-yl}(3-hydroxy-3-methylazetidin-1-yl)methanone]	77.2	
39	Cc1cccc(C)c1CNc1cc(C(=O)N2CC(CO)C2)cn2c(C)c(C)nc12 [Example 11, {8-[(2,6-dimethylbenzyl)amino]-2,3-dimethylimidazo[1,2-α]pyridin-6-yl}[3-(hydroxymethyl)azetidin-1-yl]methanone]	97.6	78
28	Cc1cc(F)cc(C)c1CNc1cc(C(=O)N2CC(O)C2)cn2c(C)c(C)nc12 [Example 34, {8-[(4-fluoro-2,6-dimethylbenzyl)amino]-2,3-dimethylimidazo[1,2-α]pyridin-6-yl}(3-hydroxyazetidin-1-yl)methanone]	91.4	
29	Cc1cc(F)cc(C)c1CNc1cc(C(=O)N2CC(F)C2)cn2c(C)c(C)nc12 [Example 36, {8-[(4-fluoro-2,6-dimethylbenzyl)amino]-2,3-dimethylimidazo[1,2-α]pyridin-6-yl}(3-fluoroazetidin-1-yl)methanone]	98.2	
41	Cc1cc(F)cc(C)c1CNc1cc(C(=O)N2CC(C)(O)C2)cn2c(C)c(C)nc12 [Example 38, {8-[(4-fluoro-2,6-dimethylbenzyl)amino]-2,3-dimethylimidazo[1,2-α]pyridin-6-yl}(3-hydroxy-3-methylazetidin-1-yl)methanone]		
24	Cc1cc(F)cc(C)c1CNc1cc(C(=O)N2CC(CO)C2)cn2c(C)c(C)nc12 [Example 39, {8-[(4-fluoro-2,6-dimethylbenzyl)amino]-2,3-dimethylimidazo[1,2-α]pyridin-6-yl}[3-(hydroxymethyl)azetidin-1-yl]methanone]	98.4	
61	Cc1ccc(F)c(C)c1CNc1cc(C(=O)N2CC(CO)C2)cn2c(C)c(C)nc12 [Example 44, {8-[(3-fluoro-2,6-dimethylbenzyl)amino]-2,3-dimethylimidazo[1,2-α]pyridin-6-yl}[3-(hydroxymethyl)azetidin-1-yl]methanone]		

From patent US10696671B2, “Imidazo[1,2-A]pyridine derivatives, methods for preparing the same and use thereof” (Jeil Pharmaceutical Co., Ltd., priority 2016, dated 2020)
